{"source": "patent US11414424B2", "about": "“Cardiac sarcomere inhibitors” (Cytokinetics, Inc., priority 2018, dated 2022)", "key": {"[1]": {"test_system": "bovine cardiac myofibrils", "assay": "Myofibril assay: PK/LDH-coupled steady-state ATPase activity of skinned bovine cardiac myofibrils", "format": "biochemical", "conditions": "Ca2+ activating to 75% of maximal rate", "method_in_brief": "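Steady-state ATPase of detergent-skinned bovine left-ventricular myofibrils (1 mg/mL), PK/LDH-coupled NADH read at 340 nm, in PIPES/MgCl2 buffer pH 6.8 with 50 μM ATP, 0.6 mM EGTA and CaCl2 set for 50% or 75% activation. Inhibition of activity measured.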"}, "[2]": {"test_system": "adult cardiac ventricular rat myocytes", "assay": "Adult ventricular myocyte contractility (fractional shortening)", "format": "cell-based", "conditions": "5 min perfusion", "protocol": "Adult male Sprague-Dawley rats were anesthetized and the hearts were quickly excised, rinsed and the ascending aorta was cannulated. Continuous retrograde perfusion was initiated on the hearts at a perfusion pressure of 60 cm H2O. Hearts were first perfused with a nominally Ca^2+-free modified Krebs solution of the following composition: 113 mM NaCl, 4.7 mM KCl, 0.6 mM KH2PO4, 0.6 mM Na2HPO4, 1.2 mM MgSO4, 12 mM NaHCO3, 10 mM KHCO3, 30 mM taurine, 5.5 mM glucose and 10 mM Hepes (all Sigma). This medium was not recirculated and was continually aerated with a 95% O2/5% CO2 mixture. After approximately 3 minutes, the heart was perfused with a modified Krebs buffer supplemented with collagenase (Worthington) and 12.5 μM final calcium concentration. The heart was removed from the cannulae after the heart appeared blanched and soft in appearance. The atria and vessels were removed and the ventricles were gently dissected into smaller pieces with forceps. The tissue was homogenized by repeated pipette trituration and the collagenase reaction was stopped by 10% bovine calf serum (BCS), sedimentation and resuspension in perfusion buffer containing 5% BCS and 12.5 uM CaCl2. Myocytes were made calcium tolerant by stepwise addition of a CaCl2 solution to a final concentration of 1.2 mM. Cells were then washed and resuspended in Tyrode's buffer (137 mM NaCl, 3.7 mM KCl, 0.5 mM MgCl, 11 mM glucose, 4 mM Hepes, and 1.2 mM CaCl2, pH 7.4). Cells were kept for 60 min at 37° C. prior to initiating experiments and used within 5 hrs of isolation. […] Additionally, only cells whose basal contractility was between 3 and 8% were used in subsequent experiments with compounds.\nAliquots of myocytes in Tyrode's buffer were placed in perfusion chambers (series 20 RC-27NE; Warner Instruments) complete with heating platforms. Myocytes were allowed to attach, the chambers were heated to 37° C., and the cells were perfused with 37° C. Tyrode's buffer. Myocytes were field stimulated at 1 Hz in with platinum electrodes (20% above threshold). Only cells that had clear striations and were quiescent prior to pacing were used for contractility experiments. To determine basal contractility, myocytes were imaged through a 40× objective. […] Once cell contraction was stable over time, test compounds (0.01-15 μM) were perfused into the chambers on the myocytes for 5 minutes. Contractility of the myocytes and contraction and relaxation velocities were then recorded using edge detection.\nFive or more individual myocytes were tested per compound from two or more different myocyte preparations. For each cell, twenty or more contractility transients at basal (defined as 1 min prior to compound infusion) and after compound addition (defined as 5 min after starting compound perfusion), were averaged and compared. These average transients were analyzed using the IonWizard software (IonOptix) to determine changes in diastolic length and fractional shortening. Fractional shortening was calculated as: ((resting length−length at peak contraction) divided by the resting length). The percent change in fractional shortening from baseline was calculated as: ((post-dose fractional shortening/basal fractional shortening)*100). The percent reduction in fractional shortening from baseline was calculated as: (100−percent change in fractional shortening from baseline). Maximum contraction and relaxation velocities (um/sec) was also determined. Results from individual cells were averaged and the SEM was calculated."}, "male Sprague Dawley rats [3]": {"test_system": "male Sprague Dawley rats", "assay": "Echocardiography assessment of acute pharmacodynamic effect on rat cardiac contractility, oral dosing", "format": "in vivo", "protocol": "(§1) Assessment of in vivo cardiac function by echocardiography was performed in male Sprague Dawley rats under isoflurane (1-3%) anesthesia. 2-D M-mode images of the left ventricle were acquired in the parasternal long-axis view before, during, and after administration of compounds by continuous IV infusion or oral gavage. In vivo fractional shortening was determined by M-mode image analysis with the following calculation: ((End diastolic diameter−end systolic diameter)/end diastolic diameter×100). For continuous IV infusion experiments, three pre-dose baseline M-mode images were taken at 1 minute intervals prior to infusion of compound. Compounds were formulated in 50% Propylene Glycol (PG): 16% Captisol: 10% dimethylacetamide (DMA) and delivered via a jugular vein catheter at the rate of 1 mL/kg/h. During infusion, M-mode images were taken at 5 minute intervals. The infusion was stopped when fractional shortening reached up to a 60% reduction from baseline. Blood samples were taken to determine the plasma concentration of the compounds. Data were reported as an estimated IC50 value, which is the concentration at which fractional shortening is 50% of the pre-dose baseline contractility.\nFor oral dosing studies, three pre-dose baseline M-Mode images were taken at 1 minute intervals prior to compound administration. Compounds were formulated in a 0.5% hydroxypropyl methylcellulose 2910 (HPMC 2910): 0.1% Tween 80 suspension and delivered as a single dose (5 mL/kg) by oral gavage. At one and four hours post-dose, rats were lightly anesthetized for M-mode echocardiography measurement. The compound effect on cardiac fractional shortening are presented as a percent reduction of baseline fractional shortening (=100%) in Table D.\nConcurrent with echocardiography measurements, blood samples are taken to determine the corresponding compound plasma concentration, which may be represented as IC50 and IC10 values, which is the concentration at which fractional shortening is 50% and 10% of the pre-dose baseline contractility, respectively."}, "male Sprague Dawley rats [4]": {"test_system": "male Sprague Dawley rats", "assay": "Echocardiography assessment of acute pharmacodynamic effect on rat cardiac contractility, continuous IV infusion", "format": "in vivo", "conditions": "estimated plasma concentration at which fractional shortening is 50% of the pre-dose baseline contractility, read-out: IC50 (mean ± SD)", "protocol": "as §1"}}}
{"smiles": "CC(C)N1CC(=O)N(Cc2ccc(Cl)cc2)C(c2ccc(Cl)cc2)C1=O", "note": "(single isomer, unassigned) [Compound 288A, 3-(4-chlorophenyl)-4-[(4-chlorophenyl)methyl]-1-(propan-2-yl)piperazine-2,5-dione]", "values": [{"measurement": "CDMF75 IC15", "setting": "[1]", "result": 800, "unit": "nM"}, {"measurement": "% FS (% reduction from baseline) ± SEM", "setting": "[2]; 5 μM", "result": "64.4 ± 9.7", "unit": "%"}]}
{"smiles": "CC(C)N1CC(=O)N(Cc2ccc(Cl)cc2)C2(CCN(c3ccccn3)C2)C1=O", "note": "(single isomer, unassigned) [Compound 373A, 6-[(4-chlorophenyl)methyl]-9-(propan-2-yl)-2-(pyridin-2-yl)-2,6,9-triazaspiro[4.5]decane-7,10-dione]", "values": [{"measurement": "CDMF75 IC15", "setting": "[1]", "result": 400, "unit": "nM"}, {"measurement": "% FS (% reduction from baseline) ± SEM", "setting": "[2]; 10 μM", "result": "76.6 ± 8.8", "unit": "%"}]}
{"smiles": "O=C1C(C2COC2)N(Cc2ccc(C(F)(F)F)cc2)C(=O)CN1c1ncc(Cl)cc1F", "note": "(single isomer, unassigned) [Compound 861A, 1-(5-chloro-3-fluoropyridin-2-yl)-3-(oxetan-3-yl)-4-(4-(trifluoromethyl)benzyl)piperazine-2,5-dione]", "values": [{"measurement": "CDMF75 IC15", "setting": "[1]", "result": 1000, "unit": "nM"}, {"measurement": "% FS (% reduction from baseline) ± SEM", "setting": "[2]; 5 μM", "result": "88.0 ± 3.31", "unit": "%"}, {"measurement": "FS (% reduction from baseline) at 1 h (Mean ± SEM)", "setting": "male Sprague Dawley rats [3]; 10 mg/kg oral", "result": "13.4 ± 1.6", "unit": "%"}, {"measurement": "FS (% reduction from baseline) at 4 h (Mean ± SEM)", "setting": "male Sprague Dawley rats [3]; 10 mg/kg oral", "result": "2.0 ± 3.1", "unit": "%"}, {"measurement": "FS (% reduction from baseline) at 1 h (Mean ± SEM)", "setting": "male Sprague Dawley rats [3]; 100 mg/kg oral", "result": "50.0 ± 4.0", "unit": "%"}, {"measurement": "FS (% reduction from baseline) at 4 h (Mean ± SEM)", "setting": "male Sprague Dawley rats [3]; 100 mg/kg oral", "result": "48.8 ± 5.0", "unit": "%"}]}
{"smiles": "CNC(=O)N1CC2(C1)C(=O)N(c1ccc(Cl)cc1)CC(=O)N2Cc1ccc(C(F)(F)F)cc1", "note": "[Compound 150, 8-(4-chlorophenyl)-N-methyl-6,9-dioxo-5-(4-(trifluoromethyl)benzyl)-2,5,8-triazaspiro[3.5]-nonane-2-carboxamide]", "values": [{"measurement": "CDMF75 IC15", "setting": "[1]", "result": 1100, "unit": "nM"}, {"measurement": "IC50", "setting": "male Sprague Dawley rats [4]", "result": "5440 ± 120", "unit": "nM"}]}
{"smiles": "N#Cc1ccc(N2CC(=O)N(Cc3ccc(C(F)(F)F)cc3)C3(CN(C=O)C3)C2=O)c(F)c1", "note": "[Compound 179, 3-fluoro-4-(2-formyl-6,9-dioxo-5-(4-(trifluoro-methyl)benzyl)-2,5,8-triazaspiro[3.5]nonan-8-yl)benzonitrile]", "values": [{"measurement": "CDMF75 IC15", "setting": "[1]", "result": 300, "unit": "nM"}, {"measurement": "FS (% reduction from baseline) at 1 h (Mean ± SEM)", "setting": "male Sprague Dawley rats [3]; 3 mg/kg oral", "result": "33.8 ± 2.6", "unit": "%"}, {"measurement": "FS (% reduction from baseline) at 4 h (Mean ± SEM)", "setting": "male Sprague Dawley rats [3]; 3 mg/kg oral", "result": "4.5 ± 4.2", "unit": "%"}, {"measurement": "FS (% reduction from baseline) at 1 h (Mean ± SEM)", "setting": "male Sprague Dawley rats [3]; 6 mg/kg oral", "result": "51.9 ± 4.0", "unit": "%"}, {"measurement": "FS (% reduction from baseline) at 4 h (Mean ± SEM)", "setting": "male Sprague Dawley rats [3]; 6 mg/kg oral", "result": "15.0 ± 5.4", "unit": "%"}]}
{"smiles": "CC(=O)N1CC2(C1)C(=O)N(c1ccc(C#N)cc1F)CC(=O)N2Cc1ccc(C(F)(F)F)cc1", "note": "[Compound 202, 4-(2-acetyl-6,9-dioxo-5-[[4-(trifluoromethyl)phenyl]methyl]-2,5,8-triazaspiro[3.5]nonan-8-yl)-3-fluorobenzonitrile]", "values": [{"measurement": "CDMF75 IC15", "setting": "[1]", "result": 800, "unit": "nM"}, {"measurement": "% FS (% reduction from baseline) ± SEM", "setting": "[2]; 5 μM", "result": "68.4 ± 9.5", "unit": "%"}, {"measurement": "IC50", "setting": "male Sprague Dawley rats [4]", "result": "3240 ± 70", "unit": "nM"}, {"measurement": "FS (% reduction from baseline) at 1 h (Mean ± SEM)", "setting": "male Sprague Dawley rats [3]; 3 mg/kg oral", "result": "21.88 ± 2.66", "unit": "%"}, {"measurement": "FS (% reduction from baseline) at 4 h (Mean ± SEM)", "setting": "male Sprague Dawley rats [3]; 3 mg/kg oral", "result": "11.25 ± 5.54", "unit": "%"}, {"measurement": "FS (% reduction from baseline) at 1 h (Mean ± SEM)", "setting": "male Sprague Dawley rats [3]; 15 mg/kg oral", "result": "51.08 ± 1.93", "unit": "%"}, {"measurement": "FS (% reduction from baseline) at 4 h (Mean ± SEM)", "setting": "male Sprague Dawley rats [3]; 15 mg/kg oral", "result": "20.18 ± 3.59", "unit": "%"}]}
{"smiles": "CC(=O)N1CC[C@]2(C1)C(=O)N(c1ccc(C#N)cc1F)CC(=O)N2Cc1ccc(Cl)cc1", "note": "[Compound 206, (S)-4-(2-acetyl-6-(4-chlorobenzyl)-7,10-dioxo-2,6,9-triazaspiro[4.5]decan-9-yl)-3-fluorobenzonitrile]", "values": [{"measurement": "CDMF75 IC15", "setting": "[1]", "result": 500, "unit": "nM"}, {"measurement": "% FS (% reduction from baseline) ± SEM", "setting": "[2]; 10 μM", "result": "95.1 ± 1.6", "unit": "%"}]}
{"smiles": "N#Cc1ccc(N2CC(=O)N(Cc3ccc(C(F)(F)F)cc3)C3(CC3)C2=O)c(F)c1", "note": "[Compound 278, 4-(5,8-dioxo-4-(4-(trifluoromethyl)benzyl)-4,7-diazaspiro[2.5]octan-7-yl)-3-fluorobenzonitrile]", "values": [{"measurement": "CDMF75 IC15", "setting": "[1]", "result": 500, "unit": "nM"}, {"measurement": "FS (% reduction from baseline) at 1 h (Mean ± SEM)", "setting": "male Sprague Dawley rats [3]; 3 mg/kg oral", "result": "15.8 ± 2.0", "unit": "%"}, {"measurement": "FS (% reduction from baseline) at 4 h (Mean ± SEM)", "setting": "male Sprague Dawley rats [3]; 3 mg/kg oral", "result": "10.6 ± 5.6", "unit": "%"}, {"measurement": "FS (% reduction from baseline) at 1 h (Mean ± SEM)", "setting": "male Sprague Dawley rats [3]; 6 mg/kg oral", "result": "34.4 ± 3.3", "unit": "%"}, {"measurement": "FS (% reduction from baseline) at 4 h (Mean ± SEM)", "setting": "male Sprague Dawley rats [3]; 6 mg/kg oral", "result": "12.2 ± 4.2", "unit": "%"}]}
{"smiles": "CC(=O)N1CC2(C1)C(=O)N(c1ccc(C#N)cc1F)CC(=O)N2[C@@H](C)c1ccc(C(F)(F)F)cc1", "note": "[Compound 339, (S)-4-(2-acetyl-6,9-dioxo-5-(1-(4-(trifluoromethyl)phenyl)ethyl)-2,5,8-triazaspiro[3.5]nonan-8-yl)-3-fluorobenzonitrile]", "values": [{"measurement": "CDMF75 IC15", "setting": "[1]", "result": 500, "unit": "nM"}, {"measurement": "FS (% reduction from baseline) at 1 h (Mean ± SEM)", "setting": "male Sprague Dawley rats [3]; 2.5 mg/kg oral", "result": "21.8 ± 2.8", "unit": "%"}, {"measurement": "FS (% reduction from baseline) at 4 h (Mean ± SEM)", "setting": "male Sprague Dawley rats [3]; 2.5 mg/kg oral", "result": "5.8 ± 4.4", "unit": "%"}, {"measurement": "FS (% reduction from baseline) at 1 h (Mean ± SEM)", "setting": "male Sprague Dawley rats [3]; 5 mg/kg oral", "result": "66.2 ± 2.9", "unit": "%"}, {"measurement": "FS (% reduction from baseline) at 4 h (Mean ± SEM)", "setting": "male Sprague Dawley rats [3]; 5 mg/kg oral", "result": "19.9 ± 2.0", "unit": "%"}]}
